Patent US20240374595A1, “SUBSTITUTED 1,1'-BIPHENYL COMPOUNDS, ANALOGUES THEREOF, AND METHODS USING SAME” (Arbutus Biopharma Corporation, priority 2018, published 2024)

Target: PD-L1 (Homo sapiens (Human), UniProt Q9NZQ7)
Experiment: PD-L1 HTRF assay (PD-1/PD-L1 interaction)
Type: binding
Conditions: PD-L1 His 6 nM, PD-1 Fc 6 nM; inhibitors 3-fold diluted from 20 μM
Method: PD-L1 small molecule inhibitors were diluted by 3-fold starting from 20 μM and a final concentration of 0.001 μM and added to the well. PD-1 Fc protein was added at the final concentration of 6 nM. PD-L1 His protein, PD-L1 small molecule inhibitors, and PD1 Fc proteins were added to the well in this order, with each 5 μl volume, and were incubated for 15 minutes at room temperature. […] The plate was read using PerkinElmer Envision plate reader and data was analyzed by Prism 6 software.

Chain of PD-L1 (Q9NZQ7 19-238): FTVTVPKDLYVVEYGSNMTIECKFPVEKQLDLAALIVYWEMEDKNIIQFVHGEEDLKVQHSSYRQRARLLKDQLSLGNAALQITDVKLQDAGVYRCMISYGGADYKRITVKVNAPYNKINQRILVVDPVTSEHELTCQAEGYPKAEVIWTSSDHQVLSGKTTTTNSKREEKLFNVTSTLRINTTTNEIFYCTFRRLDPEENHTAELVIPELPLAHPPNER

Compound	IC50 [nM]
CC(=O)NCC/N=C(\NCCNC(C)=O)c1ccc(OCc2cccc(-c3ccccc3)c2C)cc1OCc1cccc(C#N)c1 [Example 14, N-[2-[[(Z)—N-(2-Acetamidoethyl)-C-[2-[(3-cyanophenyl)methoxy]-4-[(2-methyl-3-phenyl-phenyl)methoxy]phenyl]carbonimidoyl]amino]ethyl]acetamide]	330
Cc1c(COc2ccc(C3=NCCN3C)c(OCc3cccc(C#N)c3)c2)cccc1-c1ccccc1 [Example 3, 3-[[2-(1-Methyl-4,5-dihydroimidazol-2-yl)-5-[(2-methyl-3-phenyl-phenyl)methoxy]phenoxy]methyl]benzonitrile]	320
Cc1c(COc2ccc(-c3nc(CO)c[nH]3)c(OCc3cccc(C#N)c3)c2)cccc1-c1ccccc1 [Example 5, 3-[[2-[4-(Hydroxymethyl)-1H-imidazol-2-yl]-5-[(2-methyl-3-phenyl-phenyl)methoxy]phenoxy]methyl]benzonitrile]	16000
Cc1c(COc2ccc(C3=NCCCN3C)c(OCc3cccc(C#N)c3)c2)cccc1-c1ccccc1 [Example 11, 3-[[2-(1-Methyl-5,6-dihydro-4H-pyrimidin-2-yl)-5-[(2-methyl-3-phenyl-phenyl)methoxy]phenoxy]methyl]benzonitrile]	300
Cc1c(NC(=O)c2ccc(CNCCO)cn2)cccc1-c1cccc(OCCCN2CCC(O)CC2)c1C [Example 33, 5-[(2-hydroxyethylamino)methyl]-N-[3-[3-[3-(4-hydroxy-1-piperidyl)propoxy]-2-methyl-phenyl]-2-methyl-phenyl]pyridine-2-carboxamide]	3.7
Cc1c(NC(=O)c2ccc(CNCCO)cn2)cccc1-c1cccc(NC(=O)c2ccc(CN(C)CCO)cn2)c1C [Example 38, 5-(((2-hydroxyethyl)-(methyl)amino)methyl)-N-(3′-(5-(((2-hydroxyethyl)amino)methyl)picolinamido)-2,2′-dimethyl-[1,1′-biphenyl]-3-yl)picolinamide]	0.9
Cc1c(NC(=O)c2ccc(CNCCO)cn2)cccc1-c1cccc(NC(=O)c2ccc(CN3CC[C@@H](O)C3)cn2)c1C [Example 37, (R)-5-(((2-hydroxyethyl)amino)methyl)-N-(3′-(5-((3-hydroxypyrrolidin-1-yl)methyl)picolinamido)-2,2′-dimethyl-[1,1′-biphenyl]-3-yl)picolinamide]	0.8
Cc1c(COc2ccc(-c3nccn3C)c(OCc3cccc(C#N)c3)c2)cccc1-c1ccccc1 [Example 4, 3-[[2-(1-methylimidazol-2-yl)-5-[(2-methyl-3-phenyl-phenyl)methoxy]phenoxy]methyl]benzonitrile]	5400
COC(=O)c1c[nH]c(-c2cc(Cl)c(OCc3cccc(-c4cccc(OCCCN5CCC(O)CC5)c4C)c3C)cc2OCc2cncc(C#N)c2)n1 [Example 20, Methyl 2-(5-chloro-2-((5-cyanopyridin-3-yl)methoxy)-4-((3′-(3-(4-hydroxypiperidin-1-yl)propoxy)-2,2′-dimethyl-[1,1′-biphenyl]-3-yl)methoxy)phenyl)-1H-imidazole-5-carboxylate]	10
Cc1c(NC(=O)c2ccc(CO)cn2)cccc1-c1cccc(NC(=O)c2ccc(CO)cn2)c1C [Example 32, 5-(Hydroxymethyl)-N-[3-[3-[[5-(hydroxymethyl)pyridine-2-carbonyl]amino]-2-methyl-phenyl]-2-methyl-phenyl]pyridine-2-carboxamide]	3.2
Cc1c(COc2ccc(C3=NCCCN3)c(OCc3cccc(C#N)c3)c2)cccc1-c1ccccc1 [Example 9, 3-[[5-[(2-Methyl-3-phenyl-phenyl)methoxy]-2-(1,4,5,6-tetrahydropyrimidin-2-yl)phenoxy]methyl]benzonitrile]	150
Cc1c(COc2cc(OCc3cncc(C#N)c3)c(C3=NCC(O)CN3)cc2Cl)cccc1-c1cccc(OCC(CO)c2ccccc2)c1C (centres unmarked) [Example 26, 5-[[4-Chloro-5-[[3-[3-(3-hydroxy-2-phenyl-propoxy)-2-methyl-phenyl]-2-methyl-phenyl]methoxy]-2-(5-hydroxy-1,4,5,6-tetrahydropyrimidin-2-yl)phenoxy]methyl]pyridine-3-carbonitrile]	7.4
Cc1c(NC(=O)c2ccc(C3=NCCC(C(=O)O)N3)cn2)cccc1-c1cccc(NC(=O)c2ccc(C3=NCCC(C(=O)O)N3)cn2)c1C (centres unmarked) [Example 35, 2-[6-[[3-[3-[[5-(4-Carboxy-1,4,5,6-tetrahydropyrimidin-2-yl)pyridine-2-carbonyl]amino]-2-methyl-phenyl]-2-methyl-phenyl]carbamoyl]-3-pyridyl]-1,4,5,6-tetrahydropyrimidine-4-carboxylic acid]	0.3
Cc1c(COc2cc(OCc3cncc(C#N)c3)c(C3=NCC(O)CN3)cc2Cl)cccc1-c1cccc(COc2cc(OCc3cncc(C#N)c3)c(C3=NCC(O)CN3)cc2Cl)c1C (centres unmarked) [Example 28, 5-[[4-chloro-5-[[3-[3-[[2-Chloro-5-[(5-cyano-3-pyridyl)methoxy]-4-(5-hydroxy-1,4,5,6-tetrahydropyrimidin-2-yl)phenoxy]methyl]-2-methyl-phenyl]-2-methyl-phenyl]methoxy]-2-(5-hydroxy-1,4,5,6-tetrahydropyrimidin-2-yl)phenoxy]methyl]pyridine-3-carbonitrile]	6.7
Cc1c(COc2ccc(C3=NCCCN3CCO)c(OCc3cccc(C#N)c3)c2)cccc1-c1ccccc1 [Example 12, 3-[[2-[1-(2-Hydroxyethyl)-5,6-dihydro-4H-pyrimidin-2-yl]-5-[(2-methyl-3-phenyl-phenyl)methoxy]phenoxy]methyl]benzonitrile]	110
Cc1c(COc2ccc(/C(=N/CCO)NCCO)c(OCc3cccc(C#N)c3)c2)cccc1-c1ccccc1 [Example 13, 2-[(3-Cyanophenyl)methoxy]-N,N′-bis(2-hydroxyethyl)-4-[(2-methyl-3-phenyl-phenyl)methoxy]benzamidine]	170
Cc1c(COc2ccc(C3=NCC(O)CN3)c(OCc3cncc(C#N)c3)c2)cccc1-c1ccccc1 (centres unmarked) [Example 15, 5-((2-(5-Hydroxy-1,4,5,6-tetrahydropyrimidin-2-yl)-5-((2-methyl-[1,1′-biphenyl]-3-yl)methoxy)phenoxy)methyl)nicotinonitrile]	15
Cc1c(COc2cc(OCc3cncc(C#N)c3)c(C3=NCC(O)CN3)cc2Cl)cccc1-c1cccc(OCCCN2CCC(O)CC2)c1C (centres unmarked) [Example 16, 5-[[4-Chloro-5-[[3-[3-[3-(4-hydroxy-1-piperidyl)propoxy]-2-methyl-phenyl]-2-methyl-phenyl]methoxy]-2-(5-hydroxy-1,4,5,6-tetrahydropyrimidin-2-yl)phenoxy]methyl]pyridine-3-carbonitrile]	1.2
Cc1c(COc2cc(OCc3cncc(C#N)c3)c(C3=NCCN3CCO)cc2Cl)cccc1-c1cccc(OCCCN2CCC(O)CC2)c1C [Example 22, 5-[[4-Chloro-2-[1-(2-hydroxyethyl)-4,5-dihydroimidazol-2-yl]-5-[[3-[3-[3-(4-hydroxy-1-piperidyl)propoxy]-2-methyl-phenyl]-2-methyl-phenyl]methoxy]phenoxy]methyl]pyridine-3-carbonitrile]	3.8
Cc1c(COc2cc(OCc3cncc(C#N)c3)c(C3=NCCN3CC(=O)O)cc2Cl)cccc1-c1cccc(OCCCN2CCC(O)CC2)c1C [Example 24, 2-[2-[5-Chloro-2-[(5-cyano-3-pyridyl)methoxy]-4-[[3-[3-[3-(4-hydroxy-1-piperidyl)propoxy]-2-methyl-phenyl]-2-methyl-phenyl]methoxy]phenyl]-4,5-dihydroimidazol-1-yl]acetic acid]	1.1
